Tests used:
MM.1S cells = experiment: MTT cell growth assay with stromal cell supernatant; assay type: cell-based, human; details: 72 hours; for growth inhibitory effect of Lenalidomide/Pomalidomide in combination: in the presence of stromal cell supernatant
Procedure: FIG. 29 is a graph showing cell growth of MM.1S cells treated for 72 hours with Compound I-50 or I-51 alone or in combination with stromal cell supernatant in an MTT assay in triplicate.
FIG. 30 is a graph showing cell growth of MM.1S cells treated for 72 hours with Lenalidomide/Pomalidomide in the presence of stromal cell supernatant alone or in combination with Compound I-50 in an MTT assay in triplicate.
FIG. 31 is a graph showing cell growth of MM.1S cells treated for 72 hours with Lenalidomide/Pomalidomide in the presence of stromal cell supernatant alone or in combination with Compound I-51 in an MTT assay in triplicate.
MM. 1S, KMS20, H929 MM cells, RPMI/8226, OPM-2 and U266 were counted and diluted to a final concentration of 400,000 cells/mL. The cell were plated in 96-well plates and mixed with an equal volume of culture media containing DMSO or increasing concentration of a compound of the present application diluted in DMSO (the final DMSO concentration is equal between all tested samples), using a STARlet Robot (Hamiltonrobotics, Reno, Nev., United States). Cells with increasing concentration of compound of the present application and DMSO were […] at different time points (24 hrs to 72 hrs). Viability was assessed by MTT or Cell Titer 96® AQueous One Solution cell proliferation assay (Promega). Specifically, for the MTT assay, the 3-[4,5 dimethylthiazol-2-yl]-2,5 diphenyltetrazolium bromide-MTT (Sigma-Aldrich, St. Louis, Mo., Unites States) colorimetric survival assay was used. At the various time points (24-72 hrs), 10 μL of 5 mg/mL MTT were added to cells. After 4 hrs incubation at 37° C., medium was discarded and 100 μL MTT stop solution (DMSO or Isopropanol with 1 N HCl) was used to dissolve MTT metabolic products. Absorbance was read at 570/630 nm. For the Promega assay, at the various time points, 20 μL of Cell Titer solution is added to the cells. After 4 hrs of incubation at 37° C. absorbance was read at […].

STK4 = STK4 (Homo sapiens (Human), UniProt Q13043); experiment: KiNativ Platform experiment, MM.1S cell lysates, biotinylated ATP, Western blot; assay type: binding; details: 10 μM, 20 minutes, then biotinylated ATP 10 minutes
Procedure: FIG. 32A and FIG. 32B show the results of a KiNativ™ Platform experiment obtained after incubating MM.1S cell lysates with 10 μM of the indicated compounds for 20 minutes, followed by incubation with biotinylated ATP for 10 minutes. FIG. 32A is a graph showing the ratio of MEK2 to STK4 derived from the Western blotting band signals in FIG. 32B, in MM.1S cell lysates treated with 10 μM of Compound I-9, I-13, or I-27 or KIN001-305 followed by incubation with biotinylated ATP. FIG. 32B is a Western blot showing the levels of STK4 and MEK2 in MM.1S cells treated with 10 μM of Compound I-9, I-13, or I-27 or KIN001-305 followed by incubation with biotinylated ATP.

BAX = experiment: Western blotting; assay type: cell-based; details: H929 cells, 1 μM, 24 hours
From the text: (§1) MM.1S, KMS20 and H929 cells are counted, diluted and plated. Cells are then […] with DMSO or different concentration of a compound of the present application for 6 hrs, 24 hrs or 48 hrs. MM cells are then collected and centrifuged at RT and the pellets are re-suspended in lysis buffer. Cell lysates are subjected to sodium dodecyl sulfate-polyacrylamide gel electrophoresis SDS-PAGE, transferred to nitrocellulose membranes, and immunoblotted with different antibodies.
(§2) MM.1S, KMS20 and H929 cells were counted, diluted and plated in six-well plates to a final concentration of 500,000 cells/well. Cells were then […] with DMSO or different concentration of a compound of the present application for 6 hrs, 24 hrs or 48 hrs. MM cells were then collected and centrifuged for 5 min, 1300 rpm at RT. The pellets were re-suspended in lysis buffer Laemli 1× (Laemli 5×: SDS 10%, DTT 500 mM, Tris-HCl pH6.8 0.4M, BromoFenol Blue, Glycerol 50%). Cell lysates were subjected to sodium dodecyl sulfate-polyacrylamide gel electrophoresis SDS-PAGE, transferred to nitrocellulose membranes, and immunoblotted with different antibodies: YAP1 (#4912), p-YAP1 (S127) (#13008), LATS1 (#9153), p-LATS1 (Thr1079) (#8654), MOB1 (#3863), p-MOB1 (Thr12) (#8843), p-MST1/p-MST2 (Thr183/Thr180) (#3681), p21 (#2947), PARP (#9532), ERK, STAT, and GAPDH (#5174) from Cell Signaling, Beverly, Mass., United States; STK4 (ab57836) (from Abcam, Cambridge, Mass., United States); PUMA (sc-28226), BAX (sc-20067), from Santa Cruz, Dallas, Tex., United States; β-actin from Sigma-Aldrich (St. Louis, Mo., United States). All antibodies were diluted 1:500, except for β-actin antibody (1:50,000 dilution). In FIG. 8, H929 cells were treated with Compound I-9 or DMSO at 1 μM concentration for 24 hours. Lysates were then obtained and immunoblot was performed using antibodies against PARP, YAP1, PUMA, BAX. p21, and GAPDH.

PARP = experiment: Western blotting; assay type: cell-based; details: H929 cells, 1 μM, 24 hours
From the text: as §1, §2

PUMA = experiment: Western blotting; assay type: cell-based; details: H929 cells, 1 μM, 24 hours
From the text: as §1, §2

p21 = experiment: Western blotting; assay type: cell-based; details: H929 cells, 1 μM, 24 hours
From the text: as §1, §2

ITPK1 = ITPK1 (Homo sapiens (Human), UniProt Q13572); experiment: KiNativ assay; assay type: binding; details: H929 live cell, range class
Procedure: Biochemical IC50s of the compounds of the present disclosure against various kinases were measured in a KiNativ assay. Compounds were screened in duplicate at 10 μM in H929 live cell. IC50 was measured via Mass spectroscopy (MS).

Chain of ITPK1 (Q13572 whole entry): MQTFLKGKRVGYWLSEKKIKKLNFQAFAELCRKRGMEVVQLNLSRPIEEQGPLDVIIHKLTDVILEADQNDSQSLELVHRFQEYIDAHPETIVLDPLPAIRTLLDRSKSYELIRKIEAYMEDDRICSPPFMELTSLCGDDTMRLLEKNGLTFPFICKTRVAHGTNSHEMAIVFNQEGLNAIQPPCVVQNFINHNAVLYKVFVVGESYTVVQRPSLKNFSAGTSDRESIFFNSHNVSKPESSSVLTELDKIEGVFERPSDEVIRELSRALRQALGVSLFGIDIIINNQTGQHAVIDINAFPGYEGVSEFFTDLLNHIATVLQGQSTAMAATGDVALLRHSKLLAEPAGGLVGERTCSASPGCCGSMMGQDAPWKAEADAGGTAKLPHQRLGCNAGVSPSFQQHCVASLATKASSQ
Chain of STK4 (Q13043 whole entry): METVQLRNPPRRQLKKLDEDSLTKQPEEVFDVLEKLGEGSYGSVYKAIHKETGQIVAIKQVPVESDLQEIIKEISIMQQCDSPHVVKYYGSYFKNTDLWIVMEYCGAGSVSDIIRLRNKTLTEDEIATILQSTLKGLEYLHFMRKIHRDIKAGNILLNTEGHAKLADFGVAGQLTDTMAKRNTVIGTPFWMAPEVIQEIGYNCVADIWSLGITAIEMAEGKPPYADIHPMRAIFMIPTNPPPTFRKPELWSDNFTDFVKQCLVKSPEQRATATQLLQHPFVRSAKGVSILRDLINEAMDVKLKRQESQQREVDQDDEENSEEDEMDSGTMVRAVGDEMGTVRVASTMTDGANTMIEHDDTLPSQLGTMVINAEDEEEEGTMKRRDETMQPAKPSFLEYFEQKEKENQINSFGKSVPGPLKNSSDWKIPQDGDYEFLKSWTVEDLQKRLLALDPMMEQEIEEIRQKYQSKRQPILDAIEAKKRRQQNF

Structure (SMILES): COc1cc(NS(=O)(=O)C2CC2)ccc1-c1cnc(N)c(-c2ccc3c(c2)CCNC3=O)c1 [Compound I-50, N-(4-(6-amino-5-(1-oxo-1,2,3,4-tetrahydroisoquinolin-6-yl)pyridin-3-yl)-3-methoxyphenyl) cyclopropanesulfonamide]
- susceptibility of cells on co-culture with stromal cell supernatant (cell growth, MTT) (MM.1S cells): enhanced the susceptibility
- growth inhibitory effect of Lenalidomide/Pomalidomide in combination (MM.1S cells): enhanced the growth inhibitory effect

Structure (SMILES): Nc1ncc(-c2ccc(NS(=O)(=O)C3CC3)cc2F)cc1-c1ccc2c(c1)CCNC2=O [Compound I-51, N-(4-(6-amino-5-(1-oxo-1,2,3,4-tetrahydroisoquinolin-6-yl)pyridin-3-yl)-3-fluorophenyl) cyclopropanesulfonamide]
- susceptibility of cells on co-culture with stromal cell supernatant (cell growth, MTT) (MM.1S cells): enhanced the susceptibility
- growth inhibitory effect of Lenalidomide/Pomalidomide in combination (MM.1S cells): enhanced the growth inhibitory effect

Structure (SMILES): Nc1ncc(-c2cccc([N+](=O)[O-])c2F)cc1-c1ccc2c(c1)CCNC2=O [Compound I-9, 6-(2-amino-5-(2-fluoro-3-nitrophenyl)pyridin-3-yl)-3,4-dihydroisoquinolin-1(2H)-one]
- affinity for STK4, as of ATP binding (STK4): highest affinity
- protein levels of BAX (BAX): upregulation
- PARP cleavage (PARP): induction of PARP cleavage
- protein levels of PUMA (PUMA): upregulation
- protein levels of p21 (p21): upregulation

Structure (SMILES): Nc1ncc(-c2ccc(NS(=O)(=O)C3CC3)cc2OC2CCCCC2)cc1-c1ccc2c(c1)CCNC2=O [Compound I-65, N-(4-(6-amino-5-(1-oxo-1,2,3,4-tetrahydroisoquinolin-6-yl)pyridin-3-yl)-3-(cyclohexyloxy)phenyl) cyclopropanesulfonamide]
- inhibition at 10 µM (ITPK1): > 100%
